From article PMC10349806 (Nature Communications, 2023) come the findings set out here.

The target in one assay is T1, PfCRT variant E54A (Plasmodium falciparum, UniProt Q9N623, A220S/E54A/I356T/K76T/M74I/N326S/N75E/Q271E/R371I).
T1 sequence (Q9N623 1-424 E54A/M74I/N75E/K76T/A220S/Q271E/N326S/I356T/R371I): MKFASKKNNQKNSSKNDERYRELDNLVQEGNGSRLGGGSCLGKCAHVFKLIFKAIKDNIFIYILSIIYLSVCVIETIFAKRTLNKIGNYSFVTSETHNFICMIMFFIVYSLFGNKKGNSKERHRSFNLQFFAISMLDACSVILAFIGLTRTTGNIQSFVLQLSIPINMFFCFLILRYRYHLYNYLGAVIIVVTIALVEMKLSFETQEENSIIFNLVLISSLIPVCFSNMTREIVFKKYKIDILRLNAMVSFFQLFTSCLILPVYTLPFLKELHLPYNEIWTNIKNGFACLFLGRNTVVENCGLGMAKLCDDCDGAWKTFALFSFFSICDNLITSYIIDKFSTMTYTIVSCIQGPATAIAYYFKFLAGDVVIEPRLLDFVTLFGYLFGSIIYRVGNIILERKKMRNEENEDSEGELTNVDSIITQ
The assay can be described thus: CQ uptake assay, oocytes expressing E54A. Type of assay: cell-based. The protocol: (§1) Site-directed mutagenesis of PfCRT^Dd2 was performed as described using the megaprimer method with overlap extension[21],[54]. The primer pairs used are listed in Supplementary Table 6. Please note that a codon-optimized and oocyte-adapted version of PfCRT^Dd2 was used[22] (Supplementary Fig. 16). The resulting DNA fragment was cloned into the SP64T expression vector and verified by sequencing.
Oocytes were obtained as described previously. Briefly, adult (>2 years old) female X. laevis frogs (NASCO) were anesthetized in a cooled solution of ethyl 3-amino benzoate methanesulfonate (0.1%, w/v), followed by a surgical removal of parts of the ovary. The ovary lobes were carefully dissected and small pieces of oocytes were incubated in Ca^2+-free ND96 buffer (96 mM NaCl, 2 mM KCl, 1 mM MgCl2 buffered with 5 mM HEPES/NaOH, pH 7.5) supplemented with collagenase D (0.1%, w/v; Roche), BSA (0.5%, w/v), and 9 mm Na2HPO4 at 18 °C for 14-16 h while gentle shaking. After incubation, the oocytes were carefully washed several times with ND96 buffer (96 mM NaCl, 2 mM KCl, 1.8 mM CaCl2, 1 mM MgCl2 buffered with 5 mM HEPES/NaOH, pH 7.5) supplemented with 100 mg l^−1 gentamycin). Defolliculated and healthy-looking stage V-VI oocytes were manually selected for RNA microinjection. The RNA was generated as following: The codon-optimized sequences of PfCRT variants were cloned into the pSP64T expression vector. After vector linearization using the restriction endonucleases BamHI or SalI (New England Biolabs), transcription was performed using the in vitro SP6 mMessage mMachine Kit (Ambion)[34]. The obtained RNA was kept at −80 °C and diluted with nuclease-free water to a concentration of 0.6 μg μl^−1. […]
Drug uptake assays were performed as described previously[21],[22],[24],[34]. […] The radioactivity of each sample was measured using a liquid scintillation analyzer Tri-Carb 4910 TR (PerkinElmer). Oocytes that were injected with water instead of RNA were analyzed in parallel, representing the uptake of a drug by diffusion and/or endogenous permeation pathways. […]

A further assay has as its system PfCRT variant H180A. The assay can be described thus: CQ uptake assay, oocytes expressing H180A. Type of assay: cell-based, Plasmodium falciparum. As to the method: as §1
(§2) Oocytes were obtained as described previously. Briefly, adult (>2 years old) female X. laevis frogs (NASCO) were anesthetized in a cooled solution of ethyl 3-amino benzoate methanesulfonate (0.1%, w/v), followed by a surgical removal of parts of the ovary. The ovary lobes were carefully dissected and small pieces of oocytes were incubated in Ca^2+-free ND96 buffer (96 mM NaCl, 2 mM KCl, 1 mM MgCl2 buffered with 5 mM HEPES/NaOH, pH 7.5) supplemented with collagenase D (0.1%, w/v; Roche), BSA (0.5%, w/v), and 9 mm Na2HPO4 at 18 °C for 14-16 h while gentle shaking. After incubation, the oocytes were carefully washed several times with ND96 buffer (96 mM NaCl, 2 mM KCl, 1.8 mM CaCl2, 1 mM MgCl2 buffered with 5 mM HEPES/NaOH, pH 7.5) supplemented with 100 mg l^−1 gentamycin). Defolliculated and healthy-looking stage V-VI oocytes were manually selected for RNA microinjection. The RNA was generated as following: The codon-optimized sequences of PfCRT variants were cloned into the pSP64T expression vector. After vector linearization using the restriction endonucleases BamHI or SalI (New England Biolabs), transcription was performed using the in vitro SP6 mMessage mMachine Kit (Ambion)[34]. The obtained RNA was kept at −80 °C and diluted with nuclease-free water to a concentration of 0.6 μg μl^−1. Precision-bore glass capillary tubes (3.5-inch glass capillaries; Drummond Scientific Co.) were pulled on a vertical puller (P-87 Flaming/Brown micropipette puller, Sutter Instrument Co.), graduated, and placed on a microinjector (Nanoject II Auto-Nanoliter Injector, Drummond Scientific Co.). 50 nl of nuclease-free water alone (control oocytes) or 50 nl of 0.6 μg μl^−1 RNA were injected under stereomicroscopic control. Injected oocytes were incubated for 46–72 h at 18 °C with twice-daily buffer changes before usage in experiments.
Drug uptake assays were performed as described previously[21],[22],[24],[34]. […] The direction of radio-labeled drug transport is here from the mostly acidic extracellular solution (pH 4.5 or 6.0, as indicated) into the oocyte cytosol (pH ∼ 7.2), which corresponds to the efflux of drug from the acidic digestive vacuole (pH 5.2) into the parasite cytoplasm (pH 7.2). The topology of PfCRT in the oolemma is such that both the N- and C-terminus face the extracellular milieu[3],[22]. In the parasite, the N- and C-terminus face the lumen of the digestive vacuole. CQ uptake kinetics were performed by incubating oocytes in ND96 buffer adjusted to a pH of 4.5, 5.0, 5.5, or 6.0 and supplemented with 50 nM [^3H]CQ and one of 7 different CQ concentrations (10 µM, 50 µM, 100 µM, 200 µM, 300 µM, 400 µM, 500 µM CQ). The reaction was stopped at the 60 min time point, which is in the linear uptake range[22],[34] (Supplementary Fig. 17). […] The radioactivity of each sample was measured using a liquid scintillation analyzer Tri-Carb 4910 TR (PerkinElmer). Oocytes that were injected with water instead of RNA were analyzed in parallel, representing the uptake of a drug by diffusion and/or endogenous permeation pathways. […]

The next assay has as its target T2, PfCRT variant D310A (Plasmodium falciparum, UniProt Q9N623, A220S/D310A/I356T/K76T/M74I/N326S/N75E/Q271E/R371I).
T2 sequence (Q9N623 1-424 M74I/N75E/K76T/A220S/Q271E/D310A/N326S/I356T/R371I): T1 sequence (Q9N623 1-424 E54A/M74I/N75E/K76T/A220S/Q271E/N326S/I356T/R371I) with A54E, D310A
The assay can be described thus: CQ uptake assay, oocytes expressing D310A. Type of assay: cell-based. The protocol: as §1, §2
Drug uptake assays were performed as described previously[21],[22],[24],[34]. […] The direction of radio-labeled drug transport is here from the mostly acidic extracellular solution (pH 4.5 or 6.0, as indicated) into the oocyte cytosol (pH ∼ 7.2), which corresponds to the efflux of drug from the acidic digestive vacuole (pH 5.2) into the parasite cytoplasm (pH 7.2). The topology of PfCRT in the oolemma is such that both the N- and C-terminus face the extracellular milieu[3],[22]. In the parasite, the N- and C-terminus face the lumen of the digestive vacuole. CQ uptake kinetics were performed by incubating oocytes in ND96 buffer adjusted to a pH of 4.5, 5.0, 5.5, or 6.0 and supplemented with 50 nM [^3H]CQ and one of 7 different CQ concentrations (10 µM, 50 µM, 100 µM, 200 µM, 300 µM, 400 µM, 500 µM CQ). The reaction was stopped at the 60 min time point, which is in the linear uptake range[22],[34] (Supplementary Fig. 17). For determination of the amount of drug uptake for each oocyte, the reaction medium was removed and the oocytes were washed three times with 2 ml of ice-cold ND96 buffer. Each oocyte was individually transferred to a scintillation vial containing 5% sodium dodecyl sulfate (200 μl) for lysis. The radioactivity of each sample was measured using a liquid scintillation analyzer Tri-Carb 4910 TR (PerkinElmer). Oocytes that were injected with water instead of RNA were analyzed in parallel, representing the uptake of a drug by diffusion and/or endogenous permeation pathways. The resulting value represents the “background“ level of drug accumulation in oocytes (in-depth discussion in[22]). […]

[1] abbreviates: H180A, 50 µM CQ, 1 h, mean ± SEM.
[2] abbreviates: pH 4.5, single replicates, Fig 1d left.
Setting [3] is: pH 6.0, single replicates, Fig 1d left.
Setting [4] is: D310A, 50 µM CQ, 1 h, mean ± SEM.

Residue numbers refer to the chain shown, from its start. “And” between values parts separate entries of the source, which are not always exact repeats. Equal entries are not always repeated.

Take `CCN(CC)CCCC(C)Nc1ccnc2cc(Cl)ccc12` (centres unmarked) [CQ, chloroquine]: the “Activity at pH 4.5” value is given as 1.38 ± 0.17 pmol h-1 oocyte-1 on PfCRT variant E54A (50 µM CQ, 1 h, mean ± SEM); 1.14 ± 0.27 pmol h-1 oocyte-1 in the assay with PfCRT variant H180A (setting [1]); 0.96 ± 0.15 pmol h-1 oocyte-1 at PfCRT variant D310A (setting [4]). Besides, the “Activity at pH 6.0” value on PfCRT variant E54A (50 µM CQ, 1 h, mean ± SEM) is 3.36 ± 0.45 pmol h-1 oocyte-1; in the assay on PfCRT variant H180A (setting [1]) it was 3.12 ± 0.12 pmol h-1 oocyte-1; on PfCRT variant D310A (setting [4]) it was 1.25 pmol h-1 oocyte-1 and 1.25 ± 0.18 pmol h-1 oocyte-1. Further, the R-value on PfCRT variant E54A (CQ transport at pH 4.5 / pH 6.0) was 0.44 ± 0.07; with PfCRT variant H180A (H180A, CQ transport at pH 4.5 / pH 6.0) it was 0.36 ± 0.09; at PfCRT variant D310A (D310A, CQ transport at pH 4.5 / pH 6.0) it was 0.77 and 0.77 ± 0.07. Further, in the assay on PfCRT variant H180A (setting [2]), the “H180A transport activity pH 4.5” value is 0.55 pmol oocyte-1 h-1 and 1.69 pmol oocyte-1 h-1 and 1.17 pmol oocyte-1 h-1. Also, the “H180A transport activity pH 6.0” value in the assay on PfCRT variant H180A (setting [3]) was 2.90 pmol oocyte-1 h-1 and 3.04 pmol oocyte-1 h-1 and 3.41 pmol oocyte-1 h-1. The “D310A transport activity pH 4.5” value on PfCRT variant D310A (setting [2]) is 0.65 pmol oocyte-1 h-1 and 1.30 pmol oocyte-1 h-1 and 0.92 pmol oocyte-1 h-1. Besides, the “D310A R-value” on PfCRT variant D310A (pH 4.5 vs pH 6.0, Fig 1d left) was 0.79 and 0.92 and 0.61. The “D310A transport activity pH 6.0” value on PfCRT variant D310A (setting [3]) was 0.82 pmol oocyte-1 h-1 and 1.42 pmol oocyte-1 h-1 and 1.51 pmol oocyte-1 h-1.
